Results taken from ChEMBL document CHEMBL1909046, “DrugMatrix in vitro pharmacology data”.

Tests used:
[1] = target: T1, Amine oxidase [flavin-containing] A (Homo sapiens, UniProt P21397); experiment: DRUGMATRIX: Monoamine Oxidase MAO-A enzyme inhibition (substrate: Kynuramine); set-up: species or system BTI-TN-5B1-4; conditions: bti-tn-5b1-4; Not Active = under 50% inhibition at 10 µM
T1 sequence (P21397 whole entry): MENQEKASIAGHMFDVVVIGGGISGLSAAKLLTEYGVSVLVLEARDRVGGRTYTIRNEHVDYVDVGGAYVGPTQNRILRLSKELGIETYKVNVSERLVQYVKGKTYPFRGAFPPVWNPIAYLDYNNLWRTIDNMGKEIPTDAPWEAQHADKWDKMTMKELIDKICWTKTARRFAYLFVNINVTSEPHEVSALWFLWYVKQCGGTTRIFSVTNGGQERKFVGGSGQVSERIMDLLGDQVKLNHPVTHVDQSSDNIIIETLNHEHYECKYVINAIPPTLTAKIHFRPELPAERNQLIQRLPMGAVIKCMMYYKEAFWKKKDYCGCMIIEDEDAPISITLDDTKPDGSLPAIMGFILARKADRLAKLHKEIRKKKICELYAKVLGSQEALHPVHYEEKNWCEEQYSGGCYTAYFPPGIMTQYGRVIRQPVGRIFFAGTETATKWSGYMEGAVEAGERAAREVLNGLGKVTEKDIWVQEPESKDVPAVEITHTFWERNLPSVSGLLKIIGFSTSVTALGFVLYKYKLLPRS

[2] = target: T2, Type-2 angiotensin II receptor (Homo sapiens, UniProt P50052); assay type: cell-based; conditions: cho-k1; further: in other assays of this panel Not Active means under 50% inhibition at 10 µM
T2 sequence (P50052 whole entry): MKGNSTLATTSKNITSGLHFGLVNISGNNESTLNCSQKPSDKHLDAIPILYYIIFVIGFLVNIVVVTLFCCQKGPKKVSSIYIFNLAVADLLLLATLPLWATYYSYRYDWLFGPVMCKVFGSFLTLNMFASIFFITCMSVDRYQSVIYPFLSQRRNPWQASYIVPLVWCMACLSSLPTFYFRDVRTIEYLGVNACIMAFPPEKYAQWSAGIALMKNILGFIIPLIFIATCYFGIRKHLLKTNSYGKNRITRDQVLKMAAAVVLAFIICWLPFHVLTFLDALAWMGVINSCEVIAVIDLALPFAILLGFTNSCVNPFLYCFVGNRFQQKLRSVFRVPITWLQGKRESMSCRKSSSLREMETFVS

Substance-P receptor = Substance-P receptor (Homo sapiens, UniProt P25103); assay type: cell membranes, Membrane; conditions: cho; further: in other assays of this panel Not Active means under 50% inhibition at 10 µM
[3] = DRUGMATRIX: Phorbol Ester radioligand binding (ligand: [3H] PDBu); assay type: cell membranes, Mus musculus, ICR, Brain, Membrane; conditions: Not Active = under 50% inhibition at 10 µM
[4] = DRUGMATRIX: Nicotinic Acetylcholine radioligand binding (ligand: [125I] Epibatidine); assay type: cell membranes, Membrane; conditions: imr-32; Not Active = under 50% inhibition at 10 µM
Calcitonin receptor = target: T3, Calcitonin receptor (Homo sapiens, UniProt P30988); assay type: cell membranes, Membrane; conditions: t47d; further: in other assays of this panel Not Active means under 50% inhibition at 10 µM
T3 sequence (P30988 whole entry): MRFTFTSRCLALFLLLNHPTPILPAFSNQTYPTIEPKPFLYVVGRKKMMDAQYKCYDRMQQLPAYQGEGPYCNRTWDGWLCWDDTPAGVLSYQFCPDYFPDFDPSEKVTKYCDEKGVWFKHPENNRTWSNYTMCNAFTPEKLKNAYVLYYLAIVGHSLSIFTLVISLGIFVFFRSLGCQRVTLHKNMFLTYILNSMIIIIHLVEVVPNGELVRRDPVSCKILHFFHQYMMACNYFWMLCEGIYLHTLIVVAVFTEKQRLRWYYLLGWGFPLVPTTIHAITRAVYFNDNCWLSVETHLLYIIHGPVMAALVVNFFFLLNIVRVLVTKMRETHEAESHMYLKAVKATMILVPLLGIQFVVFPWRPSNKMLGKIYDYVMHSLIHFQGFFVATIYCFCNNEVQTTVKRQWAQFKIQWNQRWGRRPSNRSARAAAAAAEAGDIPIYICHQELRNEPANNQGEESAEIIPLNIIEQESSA

[5] = target: T4, C-X-C chemokine receptor type 2 (Homo sapiens, UniProt P25025); assay type: cell membranes, Membrane; conditions: cho-k1; further: in other assays of this panel Not Active means under 50% inhibition at 10 µM
T4 sequence (P25025 whole entry): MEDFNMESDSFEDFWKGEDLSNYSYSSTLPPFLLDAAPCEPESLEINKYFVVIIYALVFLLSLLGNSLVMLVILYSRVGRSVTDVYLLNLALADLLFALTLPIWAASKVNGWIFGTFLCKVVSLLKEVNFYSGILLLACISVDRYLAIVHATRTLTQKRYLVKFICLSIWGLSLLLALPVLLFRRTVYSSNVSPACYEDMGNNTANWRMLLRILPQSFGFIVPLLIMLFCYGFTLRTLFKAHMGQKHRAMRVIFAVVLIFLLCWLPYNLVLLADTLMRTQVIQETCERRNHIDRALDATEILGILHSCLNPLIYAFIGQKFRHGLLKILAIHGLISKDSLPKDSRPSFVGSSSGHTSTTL

Glucocorticoid receptor = target: T5, Glucocorticoid receptor (Homo sapiens, UniProt P04150); conditions: hela s3; further: in other assays of this panel Not Active means under 50% inhibition at 10 µM
T5 sequence (P04150 whole entry): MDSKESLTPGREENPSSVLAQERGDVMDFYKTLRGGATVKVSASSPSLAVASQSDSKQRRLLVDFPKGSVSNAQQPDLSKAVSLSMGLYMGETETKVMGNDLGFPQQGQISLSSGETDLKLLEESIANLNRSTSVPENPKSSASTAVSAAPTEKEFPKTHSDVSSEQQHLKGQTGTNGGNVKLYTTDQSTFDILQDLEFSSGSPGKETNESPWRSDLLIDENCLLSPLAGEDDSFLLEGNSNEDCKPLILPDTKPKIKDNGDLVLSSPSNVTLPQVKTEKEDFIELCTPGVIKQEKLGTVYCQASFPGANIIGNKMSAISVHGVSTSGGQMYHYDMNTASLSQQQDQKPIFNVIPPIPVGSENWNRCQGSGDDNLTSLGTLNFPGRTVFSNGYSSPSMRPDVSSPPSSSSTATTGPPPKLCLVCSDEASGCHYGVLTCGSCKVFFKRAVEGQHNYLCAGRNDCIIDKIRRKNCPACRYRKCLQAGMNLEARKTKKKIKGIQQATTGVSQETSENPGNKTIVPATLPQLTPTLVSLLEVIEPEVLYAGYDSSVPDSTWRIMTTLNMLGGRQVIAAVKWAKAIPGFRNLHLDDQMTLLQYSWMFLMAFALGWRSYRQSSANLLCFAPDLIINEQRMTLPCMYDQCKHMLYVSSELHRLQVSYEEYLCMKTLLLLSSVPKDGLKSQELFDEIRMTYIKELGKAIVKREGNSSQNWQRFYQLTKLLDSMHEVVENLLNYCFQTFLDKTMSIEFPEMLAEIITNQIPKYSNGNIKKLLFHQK

[6] = DRUGMATRIX: Atrial Natriuretic Factor (ANF) radioligand binding (ligand: [125I] ANF (rat)); assay type: cell membranes, Cavia porcellus, Dunkin-Hartley, Adrenal gland, Membrane; conditions: Not Active = under 50% inhibition at 10 µM

Sequence of Substance-P receptor (P25103 whole entry): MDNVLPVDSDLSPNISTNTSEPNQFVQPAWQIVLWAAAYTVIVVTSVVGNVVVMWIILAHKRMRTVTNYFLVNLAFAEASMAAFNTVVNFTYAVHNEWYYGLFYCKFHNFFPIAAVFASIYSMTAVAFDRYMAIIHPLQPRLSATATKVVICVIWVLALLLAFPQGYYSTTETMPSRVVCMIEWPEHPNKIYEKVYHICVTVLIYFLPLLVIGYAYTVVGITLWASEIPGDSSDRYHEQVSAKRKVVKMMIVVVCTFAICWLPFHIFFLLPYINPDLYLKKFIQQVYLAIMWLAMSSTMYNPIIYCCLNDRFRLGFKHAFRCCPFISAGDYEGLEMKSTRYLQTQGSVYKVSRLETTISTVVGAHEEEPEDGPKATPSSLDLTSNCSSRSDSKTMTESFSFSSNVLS

CC(C)C[C@H]1C(=O)N2CCC[C@H]2[C@]2(O)O[C@](NC(=O)[C@@H]3C=C4c5cccc6[nH]c(Br)c(c56)C[C@H]4N(C)C3)(C(C)C)C(=O)N12 [BROMOCRIPTINE]
Not Active: IC50 [1] | IC50 [2] | IC50 (Substance-P receptor) | IC50 [3] | Ki [3] | IC50 [4] | Ki [4] | IC50 (Calcitonin receptor) | IC50 [5] | IC50 (Glucocorticoid receptor) | IC50 [6] | Ki [6]

CCCCCC[C@H]1C(=O)O[C@H](C)[C@H](NC(=O)c2cccc(NC=O)c2O)C(=O)O[C@@H](C)[C@@H]1OC(=O)CC(C)C [ANTIMYCIN A]
Not Active: IC50 [1] | IC50 [2] | IC50 (Substance-P receptor) | IC50 [3] | Ki [3] | IC50 [4] | Ki [4] | IC50 (Calcitonin receptor) | IC50 [5] | IC50 (Glucocorticoid receptor) | IC50 [6] | Ki [6]

Cc1cnc(C(=O)NCCc2ccc(S(=O)(=O)NC(=O)NC3CCCCC3)cc2)cn1 [GLIPIZIDE]
Not Active: IC50 [1] | IC50 [2] | IC50 (Substance-P receptor) | IC50 [3] | Ki [3] | IC50 [4] | Ki [4] | IC50 (Calcitonin receptor) | IC50 [5] | IC50 (Glucocorticoid receptor) | IC50 [6] | Ki [6]

CCN[C@@H](C)Cc1cccc(C(F)(F)F)c1 [DEXFENFLURAMINE]
Not Active: IC50 [1] | IC50 [2] | IC50 (Substance-P receptor) | IC50 [3] | Ki [3] | IC50 [4] | Ki [4] | IC50 (Calcitonin receptor) | IC50 [5] | IC50 (Glucocorticoid receptor) | IC50 [6] | Ki [6]

Nn1nnc2ccccc21
Not Active: IC50 [1] | IC50 [2] | IC50 (Substance-P receptor) | IC50 [3] | Ki [3] | IC50 [4] | Ki [4] | IC50 (Calcitonin receptor) | IC50 [5] | IC50 (Glucocorticoid receptor) | IC50 [6] | Ki [6]

O=C(O)Cc1ccc(-c2ccccc2)cc1 [FELBINAC]
Not Active: IC50 [1] | IC50 [2] | IC50 (Substance-P receptor) | IC50 [3] | Ki [3] | IC50 [4] | Ki [4] | IC50 (Calcitonin receptor) | IC50 [5] | IC50 (Glucocorticoid receptor) | IC50 [6] | Ki [6]
